According to ChEMBL document CHEMBL5143538, “Discovery, Structure Correction, and Biosynthesis of Actinopyrones, Cytotoxic Polyketides from the Deep-Sea Hydrothermal-Vent-Derived Streptomyces sp. SCSIO ZS0520” (J Nat Prod, 2022):

Assays:
Format in all cases: functional, cell-based
MDA-MB-435 = test: Cytotoxicity against human MDA-MB-435 cells assessed as inhibition of cell proliferation measured after 68 hrs by MTT assay; details: MDA-MB-435, 68 h
MDA-MB-231 = test: Cytotoxicity against human MDA-MB-231 cells assessed as inhibition of cell proliferation measured after 68 hrs by MTT assay; details: MDA-MB-231, 68 h
Huh-7 = test: Cytotoxicity against human Huh-7 cells assessed as inhibition of cell proliferation measured after 68 hrs by MTT assay; details: Huh-7, 68 h
NCI-H460 = test: Cytotoxicity against human NCI-H460 cells assessed as inhibition of cell proliferation measured after 68 hrs by MTT assay; details: NCI-H460, 68 h
A549 = test: Cytotoxicity against human A549 cells assessed as inhibition of cell proliferation measured after 68 hrs by MTT assay; details: A549, 68 h
HT-29 = test: Cytotoxicity against human HT-29 cells assessed as inhibition of cell proliferation measured after 68 hrs by MTT assay; details: HT-29, 68 h

| SMILES | IC50 (MDA-MB-435) [µM] | IC50 (MDA-MB-231) [µM] | IC50 (Huh-7) [µM] | IC50 (NCI-H460) [µM] | IC50 (A549) [µM] | IC50 (HT-29) [µM] |
| --- | --- | --- | --- | --- | --- | --- |
| C/C=C(\C)[C@@H](O)[C@@H](C)/C=C(C)/C=C/C[C@H](C)/C=C/C(=O)CC | > 50 | > 50 | > 50 | > 50 | > 50 | > 50 |
| C/C=C(\C)[C@@H](O)[C@@H](C)/C=C(C)/C=C/C[C@H](C)/C=C/c1oc(OC)c(C)c(=O)c1C | > 50 | > 50 | > 50 | > 50 | > 50 | > 50 |
| C/C=C(\C)[C@@H](O)[C@@H](C)/C=C(C)/C=C/C[C@H](C)/C=C/c1oc(=O)c(C)c(O)c1C | > 50 | > 50 | > 50 | > 50 | > 50 | > 50 |
| C/C=C(\C)[C@@H](O[C@@H]1O[C@H](CO)[C@@H](O)[C@H](O)[C@H]1O)[C@@H](C)/C=C(C)/C=C/C[C@H](C)/C=C/c1oc(OC)c(C)c(=O)c1C (stereo in doubt) | 0.26 | 1 | 1.18 | 0.66 | 0.75 | 2.22 |
| COc1cccc2c1C(=O)c1c(O)c3c(c(O)c1C2=O)C[C@@](O)(C(=O)CO)C[C@@H]3O[C@H]1C[C@H](N)[C@@H](O)[C@H](C)O1 [EPIRUBICIN] | 0.23 | 1.2 | 9.12 | 0.06 | 1.32 | 3.36 |
